# Assays:
# [1] = tested on: native polyamine levels in AR42J cells; test: Polyamine pool analysis in AR42J cells; type: cell-based; conditions: 5 μm analogue
# Description: In addition, the effect of (OH)2DEHSPM on the native polyamine levels in this cell line was evaluated.
# [2] = tested on: pancreatic native polyamine pools; test: Tissue drug and native polyamine levels (pancreas, liver) in treated dogs; type: in vivo, beagles
# Description: The two dogs (#490 and 494) were fed a prescription canned and dry dog food and were supplemented with Viokase, a pancreatic enzyme preparation, by mixing three tablets with food or by oral administration immediately before each feeding. The dogs were maintained on this regimen for approximately three weeks. During this time, their weight and blood chemistries were closely monitored. The Viokase supplementation was then stopped and the same parameters were again evaluated. One week after the Viokase administration had ceased, the animals were euthanized and tissues were taken for histology and for the determination of tissue polyamine levels.
# As the pancreatic insufficiency side-effect that was observed after the administration of the (R,R)—(HO)2DEHSPM to the beagles may have been related to the (R,R)-chirality of the molecule, the (S,S)-enantiomer was synthesized and was compared in a head-to-head fashion with the (R,R)-enantiomer. To perform this experiment, five male beagles approximately 6-8 months of age were obtained from Harlan Sprague Dawley. There were provided with food and water ad libitum and were allowed to acclimate to their new surroundings for two weeks. The animals were weighed prior to starting drug administration and were weighed once per week during the drug dosing period. A CBC and chemistry panel and a Holter monitor were performed once per week. In addition to the usual tests, additional pancreatic function-specific tests were also performed. These additional evaluations included a fecal trypsin test, examination of the feces for fecal fat and serum trypsin-like immunoreactivity determinations. It was hoped that these signs of pancreatic insufficiency would only appear in the animals given the (R,R)-enantiomer and would not be observed in the dogs that were given the (S,S)-molecule. The pancreatic insufficiency may not become evident until approximately 7-8 weeks post-drug. At the conclusion of the experiment, all of the animals were sacrificed and the histology and tissue polyamine levels were determined.
# • 1. Dogs #468 and 500 were given (R,R)—(HO)2DEHSPM subcutaneously twice daily for 13 days. • 2. They were fed Purina Dog Chow ad libitum and given free access to water. • 3. Polyamine levels in the pancreas were also analyzed at several time points post-drug. • 4. At the start of the experiment, dog #468 weighed 14.4 kg and dog #500 weighed 12.8 kg. The latter animal's weight never exceeded 13.2 kg. At the end of the drug dosing period, dog #468 weighed 13.0 kg, a loss of 1.4 kg; dog #500 weighed 13.2 kg, a gain of 0.4 kg. • 5. […] The pancreatic native polyamine pools (most especially SPD) were markedly diminished compared to untreated control tissue: [SPM]control=3,985 μm v. [SPM10-days post-treatment=2,548 μm (64% of control) [SPD]control=2,820 μm v [SPD]10-days post-treatment=721 μm (25.6% of control) • 6. Dog #468 was bright, alert and responsive until day thirteen of drug administration. […] The dog was fed boiled chicken and rice, as well as Nutrical (a caloric supplement) and cat food and was slowly weaned back to regular dog food. Frank and/or occult blood was found in the dog's stool until about 17-days post-drug. • 7. Dog #500 was bright, alert and responsive throughout the experiment. […] However, stool consistency had normalized by one week post-drug. • 8. […] The inability to digest fats was confirmed when this test was repeated and the fatty meal was supplemented with Viokase (a pancreatic enzyme supplement). […] (2.15 mg/kg every 12 hours) for 13 days • Route: subcutaneously • 1. Dogs #440 and 476 were given (S,S)— (HO)2DEHSPM subcutaneously twice daily for 13 days. • […]. They were fed Purina Dog Chow ad libitum and given free access to water. • 3. At the start of the experiment, dog #440 weighed 11.8 kg.
# Two animals were also treated with DEHSPM at a dose equimolar to the (HO)2DEHSPM dosage and sacrificed at 1- and 75-days after the final treatment. […]
# [3] = tested on: human pancreatic cell carcinoma line PANC-1; test: IC50 assays in PANC-1 cells; type: cell-based
# Description: (OH)2DEHSPM was tested in a series of IC50 assays in the human pancreatic cell carcinoma line PANC-1 (doubling time 36 hr.).
compound,measurement,setting,value
"CCNCC[C@@H](O)CNCCCCNC[C@H](O)CCNCC.Cl.Cl.Cl.Cl [(R,R)-(HO)2DEHSPM, N^1,N^14-Diethyl-3(R) 12(R)-dihydroxyhomospermine tetrahydrochloride]",Analogue level,[1],4748 pmol/million cells
same,"PUT, native polyamine level as % polyamine pools relative to untreated controls",[1],0%
same,"SPD, native polyamine level as % polyamine pools relative to untreated controls",[1],21%
same,"SPM, native polyamine level as % polyamine pools relative to untreated controls",[1],82%
same,liver concentration of drug (parent+metabolite),[2]; 10-days post-drug,500 μm
same,pancreatic concentration of drug (parent+metabolite),[2]; 10-days post-drug,"exceeded 1,000 μm"
same,[SPD] in pancreas,[2]; 10-days post-treatment,721 μm
same,"[SPD] in pancreas, % of control",[2]; 10-days post-treatment,25.6 % of control
same,[SPM] in pancreas,[2]; 10-days post-treatment,"2,548 μm"
same,"[SPM] in pancreas, % of control",[2]; 10-days post-treatment,64 % of control
same,[SPD] in pancreas,[2]; 52-days post-treatment,156 μm
same,"[SPD] in pancreas, % of control",[2]; 52-days post-treatment,5.5 % of control
same,[SPM] in pancreas,[2]; 52-days post-treatment,860 μm
same,"[SPM] in pancreas, % of control",[2]; 52-days post-treatment,21.6 % of control
same,native polyamine levels in pancreas,"[2]; 75-, 78-, 88- and 92-days post-treatment","stabilized, but at a much lower level than the control pancreas"
same,drug remaining in pancreas,"[2]; 75-, 88- and 92-day post-treatment samples",almost completely washed out
same,total drug concentration (parent+metabolite) in pancreas,[2]; at necropsy (52-days post-treatment) vs 10-days post-treatment,remained virtually unchanged
same,IC50,[3]; time point 96 hr.,> 100000 nM
same,IC50,[3]; time point 144 hr.,500 nM
same,IC50,[3]; time point 240 hr.,120 nM

# Reference: patent US20080108706A1, “Chemical resection of pancreas” (priority 1999, published 2008)
